According to patent US20220127281A1, “HETEROARYL COMPOUNDS THAT INHIBIT G12C MUTANT RAS PROTEINS” (AstraZeneca AB, priority 2017, published 2022):

Tests used:
[1] = target: T1, GDP loaded biotinylated KRas^G12C protein (Homo sapiens, UniProt P01116, G12C); experiment: KRasG12C functional assay; format: biochemical; conditions: HTRF FRET readout of SOS-mediated nucleotide exchange and GST-Raf RBD binding; samples incubated for 4 hrs; read-out: KRasG12C functional assay IC50 value
T1 construct: biotin (biotinylated); made in house
How it was run: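 Biotinylated GDP-loaded KRasG12C exchange driven by 0.08 μM SOS with 0.6 μM GTPγS, read by HTRF between europium and XL665 as active KRas binds 20 nM GST-Raf RBD. Buffer: 20 mM HEPES pH 7.5, 5 mM MgCl2, 150 mM NaCl, 0.01% Tween 20. IC50 from normalised FRET dose-response fits.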

[2] = target: T1, GDP loaded biotinylated KRas^G12C protein; experiment: KRasG12C mass spectrometry adducting assay; format: binding; conditions: test compound final concentration 10 μM, 4 μM KRasG12C, react for 4 hours
How it was run: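 GDP-loaded biotinylated KRasG12C incubated with compound in 20 mM HEPES pH 7.5, 5 mM MgCl2, 150 mM NaCl, then analysed by LC–QTOF MS.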

T1 sequence (P01116 1-188 isoform P01116-2 G12C): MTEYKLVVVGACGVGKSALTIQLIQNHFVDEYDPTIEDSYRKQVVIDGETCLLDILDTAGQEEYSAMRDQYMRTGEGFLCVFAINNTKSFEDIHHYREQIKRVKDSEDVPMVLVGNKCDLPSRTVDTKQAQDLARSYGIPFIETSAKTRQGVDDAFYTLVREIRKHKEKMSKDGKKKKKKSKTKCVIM

| IC50 [1] [nM] | KRasG12C M.S. Binding Mean adduct % [2] [%] | Compound |
| --- | --- | --- |
| 7090 | 42 | C=CC(=O)N1CCN2c3ncnc4cc(-c5cccc6ncoc56)c(Cl)c(c34)OC[C@@H]2C1 [Example 58, 1-[(8aS)-5-(1,3-Benzoxazol-7-yl)-6-chloro-8a,9,11,12-tetrahydropyrazino[2′,1′:3,4][1,4]oxazepino[5,6,7-de]quinazolin-10(8H)-yl]prop-2-en-1-one] |
| 5850 | 42 | C=CC(=O)N1CCN2c3ncnc4cc(-c5cccc(CC#N)c5)c(Cl)c(c34)OC[C@@H]2C1 [Example 59, {3-[(8aS)-10-Acryloyl-6-chloro-8,8a,9,10,11,12-hexahydropyrazino[2′,1′:3,4][1,4]oxazepino[5,6,7-de]quinazolin-5-yl]phenyl}acetonitrile] |
| 437 | 100 | C=CC(=O)N1CCN2c3ncnc4cc(-c5ccccc5F)c(Cl)c(c34)OC[C@@H]2C1 [Example 60, 1-[(8aS)-6-Chloro-5-(2-fluorophenyl)-8a,9,11,12-tetrahydropyrazino[2′,1′:3,4][1,4]oxazepino[5,6,7-de]quinazolin-10(8H)-yl]prop-2-en-1-one] |
| 355 | 100 | C=CC(=O)N1CCN2c3ncnc4cc(-c5cccc(F)c5F)c(Cl)c(c34)OC[C@@H]2C1 [Example 62, 1-[(8aS)-6-Chloro-5-(2,3-difluorophenyl)-8a,9,11,12-tetrahydropyrazino[2′,1′:3,4][1,4]oxazepino[5,6,7-de]quinazolin-10(8H)-yl]prop-2-en-1-one] |
| 1570 | 75 | C=CC(=O)N1CCN2c3ncnc4cc(-c5ccc(F)cc5C)c(Cl)c(c34)OC[C@@H]2C1 [Example 64, 1-[(8aS)-6-Chloro-5-(4-fluoro-2-methylphenyl)-8a,9,11,12-tetrahydropyrazino[2′,1′:3,4][1,4]oxazepino[5,6,7-de]quinazolin-10(8H)-yl]prop-2-en-1-one] |
| 3460 | 49 | C=CC(=O)N1CCN2c3ncnc4cc(-c5ccccc5CO)c(Cl)c(c34)OC[C@@H]2C1 [Example 65, 1-[(8aS)-6-Chloro-5-[2-(hydroxymethyl)phenyl]-8a,9,11,12-tetrahydropyrazino[2′,1′:3,4][1,4]oxazepino[5,6,7-de]quinazolin-10(8H)-yl]prop-2-en-1-one] |
| 1450 | 84 | C=CC(=O)N1CCN2c3ncnc4cc(-c5ccc(F)cc5F)c(Cl)c(c34)OC[C@@H]2C1 [Example 66, 1-[(8aS)-6-Chloro-5-(2,4-difluorophenyl)-8a,9,11,12-tetrahydropyrazino[2′,1′:3,4][1,4]oxazepino[5,6,7-de]quinazolin-10(8H)-yl]prop-2-en-1-one] |
| 1470 | 62 | C=CC(=O)N1CCN2c3ncnc4cc(-c5ccccc5C#N)c(Cl)c(c34)OC[C@@H]2C1 [Example 68, 2-[(8aS)-10-Acryloyl-6-chloro-8,8a,9,10,11,12-hexahydropyrazino[2′,1′:3,4][1,4]oxazepino[5,6,7-de]quinazolin-5-yl]benzonitrile] |
| 445 | 67 | C=CC(=O)N1CCN2c3nc(N4CCOCC4)nc4cc(-c5c(C)ccc6[nH]ncc56)c(Cl)c(c34)OC[C@@H]2C1 [Example 70, 1-[(8aS)-6-chloro-5-(5-methyl-1H-indazol-4-yl)-2-(morpholin-4-yl)-8a,9,11,12-tetrahydropyrazino[2′,1′:3,4][1,4]oxazepino[5,6,7-de]quinazolin-10 (8H)-yl]prop-2-en-1-one] |
| 19 | 57 | C=CC(=O)N1CCN2c3nc(N4CC(N(C)C)C4)nc4cc(-c5c(C)ccc6[nH]ncc56)c(Cl)c(c34)OC[C@@H]2C1 [Example 75, 1-((8aS)-6-chloro-2-(3-(dimethylamino)azetidin-1-yl)-5-(5-methyl-1H-indazol-4-yl)-8a,9,11,12-tetrahydropyrazino[2′,1′:3,4][1,4]oxazepino[5,6,7-de]quinazolin-10 (8H)-yl)prop-2-en-1-one] |
| 37 | 81 | C=CC(=O)N1CCN2c3nc(NCCN(C)C)nc4cc(-c5c(C)ccc6[nH]ncc56)c(Cl)c(c34)OC[C@@H]2C1 [Example 78, 1-((8aS)-6-Chloro-2-((2-(dimethylamino)ethyl)amino)-5-(5-methyl-1H-indazol-4-yl)-8a,9,11,12-tetrahydropyrazino[2′,1′:3,4][1,4]oxazepino[5,6,7-de]quinazolin-10 (8H)-yl)prop-2-en-1-one] |

| Compound | IC50 [1] [nM] | KRasG12C M.S. Binding Mean adduct % [2] [%] |
| --- | --- | --- |
| C=CC(=O)N1CCN2c3ncnc4cc(-c5cccc6[nH]ncc56)c(Cl)c(c34)OC[C@@H]2C1 [Example 61, 1-[(8aS)-6-Chloro-5-(1H-indazol-4-yl)-8a,9,11,12-tetrahydropyrazino[2′,1′:3,4][1,4]oxazepino[5,6,7-de]quinazolin-10(8H)-yl]prop-2-en-1-one] | 2220 | 64 |
| C=CC(=O)N1CCN2c3ncnc4cc(-c5ccccc5O)c(Cl)c(c34)OC[C@@H]2C1 [Example 63, 1-[(8aS)-6-Chloro-5-(2-hydroxyphenyl)-8a,9,11,12-tetrahydropyrazino[2′,1′:3,4][1,4]oxazepino[5,6,7-de]quinazolin-10(8H)-yl]prop-2-en-1-one] | 896 | 87 |
| C=CC(=O)N1CCN2c3ncnc4cc(-c5cnccc5C#N)c(Cl)c(c34)OC[C@@H]2C1 [Example 67, 3-[(8aS)-10-Acryloyl-6-chloro-8,8a,9,10,11,12-hexahydropyrazino[2′,1′:3,4][1,4]oxazepino[5,6,7-de]quinazolin-5-yl]pyridine-4-carbonitrile] | 6530 | 17 |
